Data from patent US9790253B2, “OSW-1 analogs and conjugates, and uses thereof” (priority 2011, dated 2017).
Entries after “also recorded” stand apart in the source; their conditions may differ. Where two headings read alike, the source gives them in different places. Where a SMILES comes first, the peptide text is derived from it. The star is where a group is joined. Cbz = O=C(OCc1ccccc1)*

Experiments:
[1] = tested on: HCT-116 p21^−/− cells; test: cells; details: for GI50: Homo sapiens, HCT-116, 48 h, read-out: GI50 (nM) 48 h p21^−/−
Method: (§1) Cell viability assay. Cells were plated into 96-well plates in 75 μL of media. After 24 h, a time-zero plate was produced by adding 25 μL of media and 20 μL of CellTiter-Blue® (Promega) to the wells, followed by incubation at 37° C. for 90 min. Fluorescence (544 nm excitation; 590 nm emission) was detected using a SPECTRAmax® Gemini XS to establish cell viability at time of dosing. Then, compounds were serially diluted in media and delivered to the cells as 4× solutions in 25 μL of media. At either 48 h or 72 h, CellTiter-Blue® was added and the fluorescence was recorded as described above.
(§2) Tasdemir et al. (2002) J Nat Prod 65:210-4. GI50-values of the compounds were determined in HCT-116 p21^+/+ (wt) and p21^−/− cells after 48 h using a resazurin redox dye to measure cell viability.
(§3) Methods are described above in the General Methods section.

[2] = tested on: HCT-116 p21^+/+ (wt) cells; test: Growth inhibition (cell viability assay) of HCT-116 p21+/+ cells; details: for GI50: Homo sapiens
Method: as §1, §2, §3

[3] = tested on: A549 cells; test: cells; assay type: cell-based, human; details: for GI50: Homo sapiens, A549, 48 h, read-out: GI50 (nM) 48 h
Excerpt: Methods are essentially as described above in the General Methods section in connection with assays using HCT-116 cells.

[4] = molecular target: T1, OSBP1-myc-his (Homo sapiens, UniProt P22059); test: [3H]-25-hydroxycholesterol charcoal-dextran binding assay with OSBP1-myc-his
T1 construct: made in house; host or cells: HEK-293T (transient transfection; S100 lysate, not purified)
T1 sequence (P22059 1-807): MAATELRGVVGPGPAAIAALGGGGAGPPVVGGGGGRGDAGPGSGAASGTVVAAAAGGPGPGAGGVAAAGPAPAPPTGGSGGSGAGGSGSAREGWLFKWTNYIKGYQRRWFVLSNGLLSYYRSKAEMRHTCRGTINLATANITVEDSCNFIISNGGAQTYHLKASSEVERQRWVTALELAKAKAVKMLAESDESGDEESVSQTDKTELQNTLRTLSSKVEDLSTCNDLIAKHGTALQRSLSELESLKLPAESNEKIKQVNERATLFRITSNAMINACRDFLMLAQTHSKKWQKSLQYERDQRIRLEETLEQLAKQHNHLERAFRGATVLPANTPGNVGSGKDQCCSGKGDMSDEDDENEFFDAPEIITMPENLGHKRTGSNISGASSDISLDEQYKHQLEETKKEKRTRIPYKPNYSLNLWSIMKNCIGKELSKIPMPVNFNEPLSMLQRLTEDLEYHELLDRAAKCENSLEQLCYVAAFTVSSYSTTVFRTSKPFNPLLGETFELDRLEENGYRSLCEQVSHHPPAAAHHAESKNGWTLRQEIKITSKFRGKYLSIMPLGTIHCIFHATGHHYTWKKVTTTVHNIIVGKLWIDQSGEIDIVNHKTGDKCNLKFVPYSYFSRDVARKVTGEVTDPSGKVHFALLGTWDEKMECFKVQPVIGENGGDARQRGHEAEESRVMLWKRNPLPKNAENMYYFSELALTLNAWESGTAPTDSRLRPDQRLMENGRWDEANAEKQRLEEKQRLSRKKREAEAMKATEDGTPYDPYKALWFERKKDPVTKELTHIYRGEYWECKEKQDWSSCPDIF
Excerpt: [^3H]-25-Hydroxycholesterol charcoal-dextran binding assay.
as §3

[5] = molecular target: T2, ORP4L-myc-his (Homo sapiens, UniProt Q969R2); test: [3H]-25-hydroxycholesterol charcoal-dextran binding assay with ORP4L-myc-his
T2 sequence (Q969R2 1-916): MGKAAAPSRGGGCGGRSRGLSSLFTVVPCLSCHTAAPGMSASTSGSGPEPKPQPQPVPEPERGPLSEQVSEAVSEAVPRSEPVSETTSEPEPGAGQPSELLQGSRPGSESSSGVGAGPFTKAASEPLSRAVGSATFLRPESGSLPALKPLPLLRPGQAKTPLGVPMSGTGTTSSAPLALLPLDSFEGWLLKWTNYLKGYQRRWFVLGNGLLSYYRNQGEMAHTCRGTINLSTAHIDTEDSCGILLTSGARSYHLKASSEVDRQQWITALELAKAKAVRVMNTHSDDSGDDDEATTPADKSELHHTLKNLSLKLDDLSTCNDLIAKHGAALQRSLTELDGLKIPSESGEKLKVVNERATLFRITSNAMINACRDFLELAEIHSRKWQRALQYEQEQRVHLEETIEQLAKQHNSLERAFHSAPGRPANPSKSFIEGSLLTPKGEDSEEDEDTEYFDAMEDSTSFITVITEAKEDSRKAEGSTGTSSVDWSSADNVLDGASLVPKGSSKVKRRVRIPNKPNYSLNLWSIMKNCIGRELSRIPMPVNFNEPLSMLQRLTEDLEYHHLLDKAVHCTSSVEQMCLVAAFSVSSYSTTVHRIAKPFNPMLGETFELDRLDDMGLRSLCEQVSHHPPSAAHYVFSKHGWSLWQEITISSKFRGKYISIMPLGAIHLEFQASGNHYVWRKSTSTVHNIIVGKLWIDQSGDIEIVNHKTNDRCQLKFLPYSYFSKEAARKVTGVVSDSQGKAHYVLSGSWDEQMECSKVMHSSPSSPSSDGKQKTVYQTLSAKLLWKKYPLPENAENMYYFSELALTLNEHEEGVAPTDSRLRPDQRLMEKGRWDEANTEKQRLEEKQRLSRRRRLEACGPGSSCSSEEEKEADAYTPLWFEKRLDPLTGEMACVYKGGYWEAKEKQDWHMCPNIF
Method: [^3H]-25-Hydroxycholesterol charcoal-dextran binding assay. […] These vectors were transfected into HEK-293T cells using Lipofectamine™2000 (Invitrogen), and 48 h after transfection, on-plate lysis of the transfected cells with the M-Per®/HALT™ with EDTA (ThermoScientific) reagent was performed, followed by ultracentrifugation at 100,000 g. The S100 lysate was diluted to 0.2 mg/mL, aliquoted and stored at −80° C. until use. The HEK-293T OSBP1-, ORP4L- or lacZ-myc-his lysate was incubated with [^3H]-25-hydroxycholesterol at 4° C. for 16 h in 96-well plates. After incubation, charcoal/dextran (C/D) was added to the wells for 30 min of shaking at RT, followed by centrifugation for 15 min at 1900 g to pellet the C/D. The C/D-cleared lysate was added to MicroScint™-20 (PerkinElmer) scintillation fluid, and the remaining protein-bound radiolabel was quantified using a TopCount™ scintillation counter. [^3H]-25-hydroxycholesterol binding curves and competition curves were repeated at least three times.
Lysates were thawed on ice, with brief periods of hand warming. Both the ^3H-25-OHC direct binding assays and the ^3H-25-OHC competition binding assays were set up similarly, with a large stock of binding assay lysate being prepared, then 73.5 μL of the binding assay mixture dispensed using a multi-channel pipettor into “V”-shaped 96-well plates. For the ^3H-25-OHC direct binding assay, 1.5 μL of ^3H-25-OHC and ^3H-25-OHC/40×25-OHC added to the wells in dilutions in 100% ethanol. For the ^3H-25-OHC competition binding assays, ^3H-25-OHC was added to the large stock of binding assay lysate to a final concentration of 20 nM. This ^3H-25-OHC-containing binding lysate was then dispensed using a multi-channel pipettor into the 96-well plates. Then, 1.5 μL of a serial dilution of the inhibitors in either 100% ethanol (25-OHC) or DMSO (the ORPphilins) was added to each well.
The binding lysate used in each well of the 96-well plate consisted of 60 μL of 0.2 mg/mL S100 lysate, 7.5 μL 20% PVA, and 5.6 μL 2M KCl. For ^3H-25-OHC binding curve experiments, 0.4 μL of buffer was then added (total volume per well: 73.5 μL). For the ^3H-25-OHC inhibition competition assays, 0.11 μL of 13.2 μM ^3H-25-OHC and 0.29 μL binding buffer was added for each well (total volume per well: 73.5 μL).
Binding assays were incubated, standing, for 16 h at 4° C. Then 30 μL of the rt C/D solution was multichannel pipetted into new “V’ shaped 96-well plates, and 60 μL of the binding lysate mixture was then added. The plates were briefly, lightly vortexed (˜10 sec), 10 and then rocked at 250 rpm for 30 min at rt. The plates were then centrifuged at 1900 g for 15 min at 4° C. in Microplate Carriers (Sorvall cat. #75006449S) in a Sorvall Legend RT centrifuge. Carefully so as to not disturb the C/D pellet, 30 μL of the supernatant was transferred to 170 μL of Microscint-20 in the OptiPlates. The plates were sealed with the TopSealA-Films, and vigorously vortexed (max speed, >1 min). ^3H-25-OHC detection in the wells was then performed using a TopCount Scintillation detector, counting each well for 2 min. Data was graphed and analyzed using GraphPad PrismS, using non-linear regression to determine KD and K1 values.
Binding experiments were performed at 4° C. for 16 h. Unbound sterol was removed using dextran-coated charcoal, and protein-bound sterol left in the supernatant was quantified by scintillation counting. Ki-values were determined as mean±s.d. from at least three independent experiments.

[6] = tested on: HCT-116 cells; test: Growth inhibition with 25-OHC co-administration; assay type: cell-based, human; details: 10 μM 25-OHC for 1 and 2
Method: 25-OHC (11) is a high-affinity ligand of OSBP1 and ORP4L that is not cytotoxic at concentrations up to 10 μM. Example 1 established that the ORPphilins compete with 25-OHC for binding to OSBP1 and ORP4L (FIG. 2D,E). Therefore, if OSBP1 and ORP4L mediate the biological activities of these compounds, co-administration of sub-lethal doses of 25-OHC with the ORPphilins should inhibit binding of the ORPphilins to OSBP1 and ORP4L, thereby desensitizing cells to the cytotoxic effects of the ORPphilins.

[7] = molecular target: T3, OSBP1 protein levels in HCT-116 cells (Homo sapiens, UniProt P22059); test: OSBP1 protein levels by western blotting; assay type: cell-based; details: for block of OSBP1 degradation by 1 and 2: co-administered with 1 and 2; for effect on OSBP1 levels, compound alone: concentration not given
T3 construct: endogenous in cells; host or cells: HCT-116
T3 sequence (P22059 1-807): T1 sequence (P22059 1-807)
Method: A possible explanation for this observation was that treatment with 1 and 2 caused a decrease in OSBP1 levels. Treatment of HCT-116 cells with vehicle (DMSO) or 25-OHC (10 μM) had no effect on OSBP1 levels, as assessed by western blotting (FIG. 6A). However, treatment with 1 or 2 induced a dramatic, time-dependent reduction of OSBP1 levels (FIG. 6A). For example, 50 nM of 1 or 10 nM of 2 caused an approximately 75% reduction in OSBP1 protein levels at 24 h in HCT-116 cells (FIG. 6A), with a similar effect recorded in A549 cells. […] OSBP1 levels were determined using both an antibody recognizing the far N-terminus of OSBP1 (FIG. 6) and also an antibody recognizing the C-terminus of OSBP1.
One possible explanation for the reduction in OSBP1 levels upon treatment with 1 and 2 was proteasome-dependent degradation. To determine whether degradation of OSBP1 was proteasome dependent, proteasome inhibitors MG-132 or lactacystin were co-administered with 1 and 2. […] Similar results were obtained in A549 cells.

[8] = HCT-116, 48 h, read-out: GI50 (nM) 48 h p21^+/+
[9] = competition with 20 nM [3H]-25-OHC, HEK-293T S100 lysate, 4° C., 16 h

Row | SMILES | GI50 [1] [nM] | GI50 [2, 8] [nM] | GI50 [3] [nM] | Ki [4] [nM] | Ki [5] [nM] | other results
1 | C=CCOC(=O)NCc1ccc(CNC(=O)O[C@H]2CC[C@@]3(C)C(=CC[C@@H]4C3CC[C@@]3(C)[C@H]4C[C@H](OC4OCC(O)C(OC5OCC(O)C(O)C5O)C4O)[C@]3(O)[C@H](C)C(=O)CCC(C)C)C2)cc1 (stereo partly drawn) [Compound 20] | 550 ± 300 | 6500 ± 3600 | – | – | – | –
2 | CC(C)CCC(=O)[C@@H](C)[C@@]1(O)[C@@H](OC2OCC(O)C(OC3OCC(O)C(O)C3O)C2O)C[C@H]2[C@@H]3CC=C4C[C@@H](O)CC[C@]4(C)C3CC[C@@]21C (stereo partly drawn) [Compound 8] | 220 ± 60 | 1400 ± 400 | 570 ± 250 | 170 ± 7 | 760 ± 200 | –
3 | CC(=O)OC1C(O[C@H]2C[C@H]3[C@@H]4CC=C5C[C@@H](O)CC[C@]5(C)C4CC[C@]3(C)[C@@]2(O)[C@H](C)C(=O)CCC(C)C)OCC(O)C1OC1OCC(O)C(O)C1O (stereo partly drawn) [Compound 7] | 17 ± 2 | 120 ± 40 | 41 ± 25 | 63 ± 12 | 120 ± 31 | –
4 | C=CCOC(=O)NCCCCCCNC(=O)O[C@H]1CC[C@@]2(C)C(=CC[C@@H]3C2CC[C@@]2(C)[C@H]3C[C@H](OC3OCC(O)C(OC4OCC(O)C(O)C4OC(=O)c4ccc(OC)cc4)C3OC(C)=O)[C@]2(O)[C@H](C)C(=O)CCC(C)C)C1 (stereo partly drawn) [Compound 103] | 138 ± 16 | 172 ± 2 | – | – | – | –
5 | C[C@H]1CCC/C=C/[C@@H]2C[C@H](O)C[C@H]2[C@H](O)/C=C/C(=O)O1 [brefeldin A] | – | – | – | – | – | effect of 25-OHC co-administration on the antiproliferative activity [6]: did not affect
6 | C=CCOC(=O)NCc1ccc(CNC(=O)OC2C(O)COC(OC3C(O)COC(O[C@H]4C[C@H]5[C@@H]6CC=C7C[C@@H](O)CC[C@]7(C)C6CC[C@]5(C)[C@@]4(O)[C@H](C)C(=O)CCC(C)C)C3OC(C)=O)C2OC(=O)c2ccc(OC)cc2)cc1 (stereo partly drawn) [Compound 6a] | 0.08 ± 0.02 | 0.6 ± 0.13 | 0.1 ± 0.04 | 18 ± 5 | 43 ± 9 | p21−/− selectivity of growth inhibition (HCT-116 p21−/− versus wt) ([1]; 48 h): commensurate with that of 2; antiproliferative potency relative to 2 [2]: maintained the antiproliferative potency of 2
7 | C=CCOC(=O)NCCCCCCNC(=O)O[C@H]1CC[C@@]2(C)C(=CC[C@@H]3C2CC[C@@]2(C)[C@H]3C[C@H](OC3OCC(O)C(OC4OCC(O)C(O)C4O)C3O)[C@]2(O)[C@H](C)C(=O)CCC(C)C)C1 (stereo partly drawn) [Compound 104] | 525 ± 4 | > 2700 | – | – | – | –
8 | COc1ccc(C(=O)OC2C(OC3C(O)COC(O[C@H]4C[C@H]5[C@@H]6CC=C7C[C@@H](O[Si](C)(C)C(C)(C)C)CC[C@]7(C)C6CC[C@]5(C)[C@@]4(O)[C@H](C)C(=O)CCC(C)C)C3OC(C)=O)OCC(O)C2O)cc1 (stereo partly drawn) [Compound 108, 3-(tert-Butyldimethylsilyl)-OSW-1] | 720 ± 90 | 2300 ± 200 | 1600 ± 500 | – | – | fold less cytotoxic than 2 in A549 cells [3]: 700 fold; fold less cytotoxic than 2 in HCT-116 p21−/− cells [1]: 2100 fold; fold less active than OSW-1 (2) in HCT-116 cells [2]: ca. 1,400 fold; GI50 ([2]; HCT-116, read-out: GI50 in HCT-116 cells): 2300 nM; [^3H]-25-OHC K1 (nM) OSBP1-myc-his [4, 9]: None detected; competition with [3H]-25-OHC for binding to OSBP1 ([4]; listed as 9): did not compete; also recorded: does not bind; [^3H]-25-OHC K1 (nM) ORP4L-myc-his [5, 9]: None detected; competition with [3H]-25-OHC for binding to ORP4L ([5]; listed as 9): did not compete; also recorded: does not bind
9 | CC(C)C[C@@H](C=O)NC(=O)[C@H](CC(C)C)NC(=O)[C@H](CC(C)C)NC(=O)OCc1ccccc1 [MG-132] (Cbz-Leu-Leu-Leu-aldehyde) | – | – | – | – | – | block of OSBP1 degradation by 1 and 2 [7]: completely blocked; effect on OSBP1 levels, compound alone [7]: did not affect
10 | CC(=O)N[C@@H](CSC(=O)[C@]1([C@@H](O)C(C)C)NC(=O)[C@H](C)[C@@H]1O)C(=O)O [lactacystin] | – | – | – | – | – | block of OSBP1 degradation by 1 and 2 [7]: completely blocked; effect on OSBP1 levels, compound alone [7]: did not affect
11 | COc1ccc(C(=O)OC2C(OC3C(O)COC(O[C@H]4C[C@H]5[C@@H]6CC=C7C[C@@H](OC(=O)NCCCCCCNC(=O)OCC8c9ccccc9-c9ccccc98)CC[C@]7(C)C6CC[C@]5(C)[C@@]4(O)[C@H](C)C(=O)CCC(C)C)C3OC(C)=O)OCC(O)C2O)cc1 (stereo partly drawn) [Compound 102] | 97 | 85 | – | – | – | –
12 | C=CCOC(=O)NCc1ccc(CNC(=O)OC2COC(OC3C(O)COC(O[C@H]4C[C@H]5[C@@H]6CC=C7C[C@@H](O)CC[C@]7(C)C6CC[C@]5(C)[C@@]4(O)[C@H](C)C(=O)CCC(C)C)C3OC(C)=O)C(OC(=O)c3ccc(OC)cc3)C2O)cc1 (stereo partly drawn) [Compound 6c] | 2.2 ± 0.5 | 17 ± 4 | 2.9 ± 0.9 | 46 ± 11 | 150 ± 50 | –
13 | C=CCOC(=O)NCc1ccc(CNC(=O)O[C@H]2CC[C@@]3(C)C(=CC[C@@H]4C3CC[C@@]3(C)[C@H]4C[C@H](OC4OCC(O)C(OC5OCC(O)C(O)C5OC(=O)c5ccc(OC)cc5)C4OC(C)=O)[C@]3(O)[C@H](C)C(=O)CCC(C)C)C2)cc1 (stereo partly drawn) [Compound 106] | 5 ± 3 | 91 ± 10 | – | – | – | –
